Experimental findings from patent publication US5716950A, “Diazacycloalkanealkylsulfonamide derivatives” (Nippon Shoji Kabushiki Kaisha, priority 1994, dated 1998) are described below.

Series [1] has as its system extracted ileum (histamine contraction). Put plainly: Antihistaminic activity: suppression of histamine-induced contraction of extracted ileum. Set-up: species or system Female Hartley guinea pig. To be noted: histamine 3×10^-7 M; guinea pig ileum; 50% suppression of contraction; read-out: anti-His in extracted ileum EC50. The method, then:
Female Hartley guinea pig (weighing 500 to 650 g) were sacrificed and the ileum (length of about 10 to 25 cm) was extracted from the ileocecum to prepare a specimen (length of 3 cm). […] After allowing to stand for 60 minutes to make the specimen stable, a histamine (3×10^-7 M) was applied to the specimen at single application. Contraction of the specimen was determined and recorded using isotonic transducer. After repeating application of a histamine to make the contraction constant, a diluted solution of the test compound was applied. Three minutes after the application, a histamine was then added and an activity of suppressing contraction was examined.

Series [2] concerns male ICR mice. Put plainly: Toxicity Test (mouse acute toxicity, minimum lethal dose). It counts as in vivo. The conditions noted are these: po, observed for 24 hours, head prints (10 mg/kg-po). The text has this:
The test compounds were orally administered to male ICR mice (weighing to 30 g) after fasting overnight. […] The results were expressed by minimum lethal dose. Toxicity of any compounds of the present invention were weaker than that of ketotifen which was a reference compound.

In series [3] the test system is passive cutaneous anaphylaxis (PCA). Put plainly: Activity of suppressing passive cutaneous anaphylaxis (PCA). Format: in vivo, Male Wistar rats. To be noted: Rattus norvegicus, po, 1 h, 10 mg/kg-po, 1 hour before antigen challenge; read-out: % suppression of rat PCA. The protocol:
Test compounds were examined on their antiallergic activities. […] After 48 hours, 1.0 ml of 0.5 % Evans Blue saline solution containing DNP.BSA (1 mg in protein) was injected through the tail vein to induce allergic reaction. After 30 minutes, the rats were sacrificed by bleeding and the skin of back where dye was leaked out was flayed and put it into 20 ml test tube with ground stopper. Thereto was added 1.0 ml of 1N KOH aqueous solution and then it was allowed to stand at 37° C. in incubator overnight for lysing. To this solution was added 8.3 ml of a mixture of acetone and 0.6N phosphoric acid (13:5) and the mixture was mixed well and then was filtered to remove the insoluble materials.
The test compounds were administered orally 1 hour before the antigen challenge. Suppression rate was expressed by percentage to the value in control where 0.5% aqueous methylcellulose solution was orally administered.

One may read the EC50 as the concentration giving half of the maximal effect. In the case of `CNS(=O)(=O)CCCCCCN1CCN(C(c2ccc(F)cc2)c2ccccn2)CC1` (stereo not drawn) [Example 26], in series [1], the EC50 worked out at 300 nM. For the same molecule, in series [2], the “mouse acute toxicity (lethal dose)” value is given as above 500 mg/kg. In addition, the inhibition in vivo at 10 mg/kg in series [3] amounted to 71%.

On to `CN(C)S(=O)(=O)CCCCCCCN1CCN(C(c2ccccc2)c2ccc(Cl)cc2)CC1` (stereo not drawn) [Example 150], for which the EC50 in series [1] stood at 350 nM. Besides, the “mouse acute toxicity (lethal dose)” value in series [2] is above 500 mg/kg. Besides, the inhibition in vivo at 10 mg/kg in series [3] was 89.1%.

As for `O=S(=O)(CCCCCN1CCN(C(c2ccccc2)c2ccc(Cl)cc2)CC1)NC1CCCC1` (stereo not drawn) [Example 136], the EC50 in series [1] amounted to 540 nM. Further, the “mouse acute toxicity (lethal dose)” value in series [2] is recorded as above 500 mg/kg. Further, the inhibition in vivo at 10 mg/kg in series [3] worked out at 80.2%.

Regarding `CN(C)S(=O)(=O)CCCCCCN1CCN(C(c2ccc(F)cc2)c2ccc(F)cc2)CC1` [Example 65], the EC50 in series [1] is 430 nM. Further, the “mouse acute toxicity (lethal dose)” value in series [2] was above 500 mg/kg. The inhibition in vivo at 10 mg/kg in series [3] came out at 74.7%.

Consider `CCNS(=O)(=O)CCCCCN1CCN(C(c2ccc(F)cc2)c2ccccn2)CC1` (stereo not drawn) [Example 31], for which the EC50 in series [1] worked out at 770 nM. In series [2], the “mouse acute toxicity (lethal dose)” value was above 500 mg/kg. Also, the inhibition in vivo at 10 mg/kg in series [3] turned out to be 87.2%.

For the molecule `O=S(=O)(CCCCCCCN1CCN(C(c2ccccc2)c2ccc(Cl)cc2)CC1)NC1CCC1` (stereo not drawn) [Example 129], the EC50 in series [1] worked out at 1800 nM. In addition, the “mouse acute toxicity (lethal dose)” value in series [2] is given as above 500 mg/kg. For the same molecule, the inhibition in vivo at 10 mg/kg in series [3] came out at 92.2%.

In the case of `O=S(=O)(CCCCCCCN1CCN(C(c2ccccc2)c2ccc(Cl)cc2)CC1)NC1CCCC1` (stereo not drawn) [Example 137], the EC50 in series [1] was found to be 2200 nM. Further, in series [2], the “mouse acute toxicity (lethal dose)” value is listed as above 500 mg/kg. In series [3], the inhibition in vivo at 10 mg/kg was determined as 75.8%.

Take `CNS(=O)(=O)CCCCCCN1CCN(C(c2ccccc2)c2ccc(Cl)cc2)CC1` (stereo not drawn) [Example 21]: the EC50 in series [1] came to 510 nM. For the same molecule, the “mouse acute toxicity (lethal dose)” value in series [2] was above 500 mg/kg. Moreover, in series [3], the inhibition in vivo at 10 mg/kg was 89.7%.

Regarding `NS(=O)(=O)CCCCCCCCN1CCN(C(c2ccc(F)cc2)c2ccccn2)CC1` (stereo not drawn) [Example 13], the EC50 in series [1] amounted to 320 nM. Moreover, the “mouse acute toxicity (lethal dose)” value in series [2] was above 500 mg/kg. Further, in series [3], the inhibition in vivo at 10 mg/kg is 73.8%.

In the case of `CCCNS(=O)(=O)CCCCCCCCCCN1CCN(C(c2ccc(F)cc2)c2ccccn2)CC1` (stereo not drawn) [Example 42], the EC50 in series [1] amounted to 330 nM. Moreover, in series [2], the “mouse acute toxicity (lethal dose)” value is reported as above 500 mg/kg. In series [3], the inhibition in vivo at 10 mg/kg amounted to 80.2%.

As for `O=S(=O)(CCCCCCN1CCN(C(c2ccccc2)c2ccc(F)cc2)CC1)NC1CC1` (stereo not drawn) [Example 124], the EC50 in series [1] turned out to be 200 nM. In addition, the “mouse acute toxicity (lethal dose)” value in series [2] was above 500 mg/kg. Further, the inhibition in vivo at 10 mg/kg in series [3] turned out to be 88.4%.

For the molecule `CCNS(=O)(=O)CCCCCCN1CCN(C(c2ccc(F)cc2)c2ccccn2)CC1` (stereo not drawn) [Example 32], the EC50 in series [1] was 840 nM. Besides, in series [2], the “mouse acute toxicity (lethal dose)” value is above 500 mg/kg. Further, the inhibition in vivo at 10 mg/kg in series [3] was found to be 86.8%.

For `CCNS(=O)(=O)CCCCCCCCN1CCN(C(c2ccccc2)c2ccc(Cl)cc2)CC1` (stereo not drawn) [Example 108], the EC50 in series [1] worked out at 680 nM. The “mouse acute toxicity (lethal dose)” value in series [2] is reported as above 500 mg/kg. Also, the inhibition in vivo at 10 mg/kg in series [3] turned out to be 82.2%.

Regarding `CN(C)S(=O)(=O)CCCCCCN1CCN(C(c2ccccc2)c2ccccn2)CC1` (stereo not drawn) [Example 67], in series [1], the concentration for a half-maximal effect (EC50) was 420 nM. The “mouse acute toxicity (lethal dose)” value in series [2] is reported as above 500 mg/kg. Further, in series [3], the inhibition in vivo at 10 mg/kg was 84.1%.

Consider `CN(C)S(=O)(=O)CCCCCCN1CCN(C(c2ccccc2)c2ccc(Cl)cc2)CC1` (stereo not drawn) [Example 64], for which, in series [1], the EC50 worked out at 360 nM. Also, the “mouse acute toxicity (lethal dose)” value in series [2] is above 500 mg/kg. The inhibition in vivo at 10 mg/kg in series [3] was 72.5%.

`O=S(=O)(CCCCCCCCN1CCN(C(c2ccccc2)c2ccc(Cl)cc2)CC1)NC1CC1` (stereo not drawn) [Example 116]: the EC50 in series [1] was 120 nM. The “mouse acute toxicity (lethal dose)” value in series [2] is recorded as above 500 mg/kg. In series [3], the inhibition in vivo at 10 mg/kg was 70.2%.

Turning to `NS(=O)(=O)CCCCCCN1CCN(C(c2ccccc2)c2ccc(Cl)cc2)CC1` (stereo not drawn) [Example 3], the half-maximal effective concentration (EC50) in series [1] is 760 nM. The “mouse acute toxicity (lethal dose)” value in series [2] is on record as above 500 mg/kg. In addition, the inhibition in vivo at 10 mg/kg in series [3] was 95.2%.

`CN(C)S(=O)(=O)CCCCCCCCN1CCN(C(c2ccccc2)c2ccccc2F)CC1` (stereo not drawn) [Example 69]: the EC50 in series [1] is 150 nM. In series [2], the “mouse acute toxicity (lethal dose)” value is given as above 500 mg/kg. Moreover, in series [3], the inhibition in vivo at 10 mg/kg is 88.3%.

On to `O=S(=O)(CCCCCCCN1CCN(C(c2ccccc2)c2ccc(Cl)cc2)CC1)NC1CC1` (stereo not drawn) [Example 115], for which the EC50 in series [1] worked out at 790 nM. Besides, the “mouse acute toxicity (lethal dose)” value in series [2] was above 500 mg/kg. For the same molecule, in series [3], the inhibition in vivo at 10 mg/kg came out at 73.2%.

Regarding `NS(=O)(=O)CCCCCCCCCCN1CCN(C(c2ccccc2)c2ccc(Cl)cc2)CC1` (stereo not drawn) [Example 104], the EC50 in series [1] is 6800 nM. Further, the “mouse acute toxicity (lethal dose)” value in series [2] is reported as above 500 mg/kg. For the same molecule, in series [3], the inhibition in vivo at 10 mg/kg came out at 86.7%.

In the case of `O=S(=O)(CCCCN1CCN(C(c2ccccc2)c2ccc(Cl)cc2)CC1)NC1CCCC1` (stereo not drawn) [Example 135], the EC50 in series [1] was found to be 1100 nM. Moreover, the “mouse acute toxicity (lethal dose)” value in series [2] was above 500 mg/kg. Also, the inhibition in vivo at 10 mg/kg in series [3] came out at 74.4%.

Consider `CC(C)NS(=O)(=O)CCCCCN1CCN(C(c2ccc(F)cc2)c2ccccn2)CC1` (stereo not drawn) [Example 45], for which the EC50 in series [1] came to 740 nM. For the same molecule, the “mouse acute toxicity (lethal dose)” value in series [2] is on record as above 500 mg/kg. Also, the inhibition in vivo at 10 mg/kg in series [3] was 84%.

Regarding `CC(C)NS(=O)(=O)CCCCCCN1CCN(C(c2ccccc2)c2ccc(Cl)cc2)CC1` (stereo not drawn) [Example 43], the EC50 in series [1] was found to be 690 nM. For the same molecule, in series [2], the “mouse acute toxicity (lethal dose)” value is reported as above 500 mg/kg. Moreover, the inhibition in vivo at 10 mg/kg in series [3] came to 86.5%.

`CC(C)NS(=O)(=O)CCCCCCCCN1CCN(C(c2ccc(F)cc2)c2ccccn2)CC1` (stereo not drawn) [Example 48]: in series [1], the EC50 came out at 350 nM. Besides, in series [2], the “mouse acute toxicity (lethal dose)” value is above 500 mg/kg. In series [3], the inhibition in vivo at 10 mg/kg was 83.8%.

Regarding `O=S(=O)(CCCCCCN1CCN(C(c2ccccc2)c2ccc(Cl)cc2)CC1)NC1CCCC1` (stereo not drawn) [Example 59], the EC50 in series [1] stood at 2900 nM. Moreover, in series [2], the “mouse acute toxicity (lethal dose)” value was above 500 mg/kg. Also, in series [3], the inhibition in vivo at 10 mg/kg was 96.4%.

`COc1cc(NS(=O)(=O)CCCCCCN2CCN(C(c3ccccc3)c3ccccc3)CC2)cc(OC)c1OC` [Example 99]: in series [1], the EC50 was 1300 nM. For the same molecule, in series [2], the “mouse acute toxicity (lethal dose)” value is given as above 500 mg/kg. Also, in series [3], the inhibition in vivo at 10 mg/kg was 72.1%.

For the molecule `O=S(=O)(CCCCCCN1CCN(C(c2ccccc2)c2ccc(Cl)cc2)CC1)NCCO` (stereo not drawn) [Example 101], in series [1], the EC50 is 810 nM. The “mouse acute toxicity (lethal dose)” value in series [2] is reported as above 500 mg/kg. For the same molecule, the inhibition in vivo at 10 mg/kg in series [3] stood at 88%.

With `CN(C)S(=O)(=O)CCCCCCN1CCN(C(c2ccncc2)c2ccc(Cl)cc2)CC1` (stereo not drawn) [Example 66], the EC50 in series [1] stood at 420 nM. The “mouse acute toxicity (lethal dose)” value in series [2] is above 500 mg/kg. The inhibition in vivo at 10 mg/kg in series [3] worked out at 82.8%.

Regarding `CCCNS(=O)(=O)CCCCCCN1CCN(C(c2ccc(F)cc2)c2ccccn2)CC1` (stereo not drawn) [Example 39], the EC50 in series [1] was 810 nM. The “mouse acute toxicity (lethal dose)” value in series [2] is recorded as above 500 mg/kg. In addition, in series [3], the inhibition in vivo at 10 mg/kg was 83.8%.

For `CCNS(=O)(=O)CCCCCCN1CCN(C(c2ccccc2)c2ccc(Cl)cc2)CC1` (stereo not drawn) [Example 29], in series [1], the EC50 was 750 nM. Also, in series [2], the “mouse acute toxicity (lethal dose)” value is recorded as above 500 mg/kg. Moreover, the inhibition in vivo at 10 mg/kg in series [3] came out at 95.7%.

In the case of `NS(=O)(=O)CCCCCCCCN1CCN(C(c2ccccc2)c2ccc(Cl)cc2)CC1` (stereo not drawn) [Example 4], the EC50 in series [1] amounted to 650 nM. In series [2], the “mouse acute toxicity (lethal dose)” value is recorded as above 500 mg/kg. In addition, the inhibition in vivo at 10 mg/kg in series [3] is 89%.
